The text below walks through data of US20220259193A1, “KCNT1 INHIBITORS AND METHODS OF USE” (Praxis Precision Medicines, Inc., priority 2019, published 2022).

The target of the assay is T1, KCNT1 (KNa1.1, Slack) (Homo sapiens, UniProt Q5JUK3).
T1 construct: expressed in transfected cells; host or cells: HEK-TREX (tetracycline-inducible HEK cell line)
T1 sequence (Q5JUK3 1-1230): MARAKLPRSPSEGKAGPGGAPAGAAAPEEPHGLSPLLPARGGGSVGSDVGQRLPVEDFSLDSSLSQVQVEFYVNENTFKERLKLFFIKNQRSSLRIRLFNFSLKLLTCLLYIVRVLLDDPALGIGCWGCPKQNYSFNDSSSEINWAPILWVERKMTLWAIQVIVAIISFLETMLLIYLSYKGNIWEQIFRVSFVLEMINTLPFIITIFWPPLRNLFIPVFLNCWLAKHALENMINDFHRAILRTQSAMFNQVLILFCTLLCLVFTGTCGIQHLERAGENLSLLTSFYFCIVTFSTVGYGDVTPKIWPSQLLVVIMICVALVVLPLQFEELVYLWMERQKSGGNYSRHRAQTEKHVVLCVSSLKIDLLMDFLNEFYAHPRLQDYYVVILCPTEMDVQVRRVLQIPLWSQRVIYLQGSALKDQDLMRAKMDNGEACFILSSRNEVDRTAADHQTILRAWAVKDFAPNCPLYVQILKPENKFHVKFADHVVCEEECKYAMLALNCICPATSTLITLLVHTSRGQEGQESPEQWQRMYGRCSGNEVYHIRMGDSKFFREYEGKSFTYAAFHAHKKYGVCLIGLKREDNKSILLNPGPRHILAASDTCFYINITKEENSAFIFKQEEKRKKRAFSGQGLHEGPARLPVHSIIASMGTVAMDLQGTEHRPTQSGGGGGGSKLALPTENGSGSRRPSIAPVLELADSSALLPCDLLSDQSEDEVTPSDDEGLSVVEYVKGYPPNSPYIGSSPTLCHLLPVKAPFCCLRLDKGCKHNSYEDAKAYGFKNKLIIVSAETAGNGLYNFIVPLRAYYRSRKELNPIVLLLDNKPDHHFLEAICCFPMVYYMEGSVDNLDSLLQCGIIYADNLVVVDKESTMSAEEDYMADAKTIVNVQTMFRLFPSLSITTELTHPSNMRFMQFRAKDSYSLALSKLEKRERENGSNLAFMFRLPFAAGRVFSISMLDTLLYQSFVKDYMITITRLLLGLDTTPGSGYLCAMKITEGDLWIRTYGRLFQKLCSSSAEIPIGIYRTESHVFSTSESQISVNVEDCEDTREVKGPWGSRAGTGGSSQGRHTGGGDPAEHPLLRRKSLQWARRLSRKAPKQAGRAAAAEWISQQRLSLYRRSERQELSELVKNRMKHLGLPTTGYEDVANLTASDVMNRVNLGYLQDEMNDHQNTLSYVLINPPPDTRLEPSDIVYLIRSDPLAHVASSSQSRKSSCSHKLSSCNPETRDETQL
The assay can be described thus: KCNT1 patch clamp assay (SyncroPatch 384PE automated patch clamp). It counts as cell-based. As to conditions: tetracycline inducible HEK-TREX cell line; perforated patch; step from −80 mV to 0 mV; room temperature; read-out: KCNT1-WT IC50. In a few lines: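 Tetracycline-inducible HEK-TREX cells; perforated-patch (10 μM escin) population recordings at room temperature, holding −80 mV with 100 ms step to 0 mV.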

pIC50: −log10 of the molar value. Where only a bound is given, the exact number is not on record here.

`Cn1nc(C2CC2)cc1C(=O)NC(COCc1ccccc1)c1nc(-c2cccc(F)c2)no1` (stereo not shown) [Compound 58, N-[2-benzyloxy-1-[3-(3-fluorophenyl)-1,2,4-oxadiazol-5-yl]ethyl]-5-cyclopropyl-2-methyl-pyrazole-3-carboxamide]: the pIC50 is 4.70 to 6.00.
As for `Cn1nc(C2CC2)cc1C(=O)NC(Cc1ccccc1)c1nc(-c2cccc(F)c2)no1` (stereo not shown) [Compound 49], the figure is 4.70 to 6.00.
As for `CC(NC(=O)c1cc(C2CC2)nn1C)c1nc(-c2ccc(Cl)cc2)no1` (stereo not shown) [Compound 9], the figure is at least 6.00.
For the molecule `Cc1nn(C(C)C)cc1C(=O)NC(C)c1nc(-c2cccc(Cl)c2)no1` (stereo not shown) [Compound 96], the pIC50 was at least 6.00.
As for `COC1(c2cc(-c3noc([C@H](C)NC(=O)c4cc(C(F)(F)F)nn4C)n3)ccn2)CC1` [Compound 263, (S)—N-(1-(3-(2-(1-methoxycyclopropyl)pyridin-4-yl)-1,2,4-oxadiazol-5-yl)ethyl)-1-methyl-3-(trifluoromethyl)-1H-pyrazole-5-carboxamide], the figure is 4.70 to 6.00.
As for `CC(C)[C@H](NC(=O)c1cc(C2CC2)nn1C)c1nc(-c2cccc(F)c2)no1` [Compound 63], the figure is at least 6.00; as for `Cc1nn(C(C)C)cc1C(=O)N[C@@H](C)c1nc(-c2ccc(F)cc2)no1` [Compound 90], 4.70 to 6.00; as for `C[C@H](NC(=O)c1cc(C(F)(F)F)nn1C)c1nc(-c2ccnc(C3CCCC3)c2)no1` [Compound 307, (S)—N-(1-(3-(2-cyclopentylpyridin-4-yl)-1,2,4-oxadiazol-5-yl)ethyl)-1-methyl-3-(trifluoromethyl)-1H-pyrazole-5-carboxamide], at least 6.00.
The figure for `Cc1nn(C2CC2)cc1C(=O)N[C@@H](C)c1nc(-c2cccc(F)c2)no1` [Compound 161] is 4.70 to 6.00; for `Cn1nc(C(F)(F)F)cc1C(=O)NC(CC(N)=O)c1nc(-c2cccc(F)c2)no1` (single isomer, unassigned) [Compound 128, N-[3-amino-1-[3-(3-fluorophenyl)-1,2,4-oxadiazol-5-yl]-3-oxo-propyl]-2-methyl-5-(trifluoromethyl)pyrazole-3-carboxamide] it is at most 4.70; for `CC(NC(=O)c1cc(C(F)(F)F)nn1C)c1nc(-c2ccnc(C3CCC3)c2)no1` (single isomer, unassigned) [Compound 279] it is at least 6.00.
Consider `Cc1cccc(-c2noc(C(C)NC(=O)c3cc(C)nn3C(C)(C)C)n2)c1` (stereo not shown) [Compound 11], for which the negative-log IC50 (pIC50) is 4.70 to 6.00.
Consider `COc1cccc(-c2noc([C@H](C)NC(=O)c3cc(C(F)(F)F)nn3C)n2)c1` [Compound 196, (S)—N-(1-(3-(3-methoxyphenyl)-1,2,4-oxadiazol-5-yl)ethyl)-1-methyl-3-(trifluoromethyl)-1H-pyrazole-5-carboxamide], for which the pIC50 was at least 6.00.
As for `Cn1nc(C(F)(F)F)cc1C(=O)N[C@@H](CCS(C)(=O)=O)c1nc(-c2cccc(F)c2)no1` (single isomer, unassigned) [Compound 144], the figure is 4.70 to 6.00; as for `CN(Cc1nc(-c2ccnc(C3CC3)c2)no1)C(=O)c1cc(C(F)(F)F)nn1C` [Compound 302, N-[[3-(2-cyclopropyl-4-pyridyl)-1,2,4-oxadiazol-5-yl]methyl]-N,2-dimethyl-5-(trifluoromethyl)pyrazole-3-carboxamide], at least 6.00; as for `Cn1nc(C(F)(F)F)cc1C(=O)NC1(c2nc(-c3cccc(F)c3)no2)CCOCC1` [Compound 118], 4.70 to 6.00.
In the case of `C[C@H](NC(=O)c1ccnn1CC1CC1)c1nc(-c2ccnc(C3CC3)c2)no1` [Compound 310, 2-(cyclopropylmethyl)-N-[(1S)-1-[3-(2-cyclopropyl-4-pyridyl)-1,2,4-oxadiazol-5-yl]ethyl]pyrazole-3-carboxamide], the negative-log IC50 (pIC50) was at least 6.00.
For `CC(C)COC(=O)N[C@@H](C)c1nc(-c2ccnc(C3CC3)c2)no1` [Compound 275], the pIC50 is at least 6.00.
As for `CC[C@H](NC(=O)c1ccnn1Cc1ccccc1)c1nc(-c2ccnc(C)c2)no1` [Compound 219, (S)-1-benzyl-N-(1-(3-(2-methylpyridin-4-yl)-1,2,4-oxadiazol-5-yl)propyl)-1H-pyrazole-5-carboxamide], the figure is at least 6.00; as for `CC[C@H](NC(=O)c1cc(C)n(-c2cccnc2)n1)c1nc(-c2ccnc(C)c2)no1` [Compound 299, (S)-5-methyl-N-(1-(3-(2-methylpyridin-4-yl)-1,2,4-oxadiazol-5-yl)propyl)-1-(pyridin-3-yl)-1H-pyrazole-3-carboxamide], at most 4.70; as for `Cc1cccc(-c2noc(C(C)NC(=O)c3cc(C(C)(C)C)nn3C)n2)c1` (stereo not shown) [Compound 13], at least 6.00.
Turning to `Cn1nc(C2CC2)cc1C(=O)N[C@H](c1nc(-c2cccc(F)c2)no1)C1CC1` (single isomer, unassigned) [Compound 109], the pIC50 was at least 6.00.
